From patent US7410983B2 (Fournier Laboratories Ireland Limited, priority 2000, dated 2008)

Tests used:
[1] = tested on: patient; details: for the patient; cited from earlier work
[2] = CoQ10 plasma levels after treatment; type: in vivo, human; details: 12 weeks, 200 mg once daily each
Experimental: (§1) Male or female patients aged less than 70 years and without severe obesity (Body Mass Index below 35 kg/m^2) were included after a 6 week run-in period if they had Haemoglobin A1c below 9%, total cholesterol below 6.5 mmol/l and either triglyceride above 1.8 mmol/l or HDL cholesterol below 1 mmol/l. The two therapeutic agents alone or in combination were given each as 200 mg once daily. Capsules identical in appearance to each agent but containing placebo were given to maintain the double-blind nature of the study.

[3] = tested on: patients with type 2 diabetes; test: Venous occlusion plethysmography: forearm blood flow response to intra-brachial acetylcholine; type: in vivo, human; details: 12 weeks; for mean change on treatment (Week 12-Week 0) in acetylcholine AUC percent increase in forearm blood flow ratio: single treatment group, 200 mg once daily each agent, ACh 7.5, 15 and 30 μg/min, aspirin pretreatment
Experimental: Evaluations of vascular function were carried out by bilateral venous occlusion plethysmography at weeks 0 and 12. These consisted of serial measurements of forearm blood flow before and after intra-brachial artery infusion of acetylcholine (ACh 7.5, 15 and 30 μg/min), sodium nitroprusside (SNP 1.5, 3 and 10 μg/min) and N^G-monomethyl-L-arginine (L-NMMA 4 μmol/l). […] Pretreatment with acetylsalicylic acid (aspirin) (650 mg daily taken orally) was given for one week to block prostacyclin and thromboxane generation.
Plethysmography studies were performed during a 5 minute infusion of each agent, diluted in saline and infused at a rate of 1 mL/min into the brachial artery of the non-dominant arm via a thin plastic cannula Each infusion of vasoactive agents was preceded by a period of saline infusion. Bilateral forearm blood flow was measured simultaneously at 15 second intervals for the final two minutes of each 5 minute infusion period employing mercury-in-silastic strain gauges. During measurements hands were excluded from the circulation by inflation of wrist cuffs to 200 mmHg and venous occlusion was obtained by cyclical inflation of upper arm cuffs to 40 mmHg. Results were expressed as the area under the curve (AUC) of the percent increase in forearm blood flow ratio (infused arm versus control arm) to account for any systemic effect of these vasoactive drugs. The AUC provided integration over time of the dose response to the agent used. AUC for percent change in blood flow to ACh was a priori described as the primary efficacy criterion in this trial.
Statistical analyses were performed using 2 by 2 analysis of variance using SPSS package

[4] = tested on: patients with type 2 diabetes; test: Lipids, diabetes control and blood pressure in the randomized clinical trial; type: in vivo, human; details: 12 weeks, 200 mg once daily
Experimental: as §1

[5] = tested on: patients with type 2 diabetes; test: Venous occlusion plethysmography: forearm blood flow response to acetylcholine with co-infusion of L-NMMA; type: in vivo, human; details: 12 weeks
Experimental: as §1
(§2) Evaluations of vascular function were carried out by bilateral venous occlusion plethysmography at weeks 0 and 12. […]
(§3) Plethysmography studies were performed during a 5 minute infusion of each agent, diluted in saline and infused at a rate of 1 mL/min into the brachial artery of the non-dominant arm via a thin plastic cannula Each infusion of vasoactive agents was preceded by a period of saline infusion. Bilateral forearm blood flow was measured simultaneously at 15 second intervals for the final two minutes of each 5 minute infusion period employing mercury-in-silastic strain gauges. […] Results were expressed as the area under the curve (AUC) of the percent increase in forearm blood flow ratio (infused arm versus control arm) to account for any systemic effect of these vasoactive drugs. […]

[6] = tested on: patients with type 2 diabetes; test: Venous occlusion plethysmography: forearm blood flow response to intra-brachial sodium nitroprusside; type: in vivo, human; details: 12 weeks
Experimental: as §1, §2, §3

[7] = pooled groups of the 2×2 design: all patients on the agent, with or without the other agent

In the case of `COC1=C(OC)C(=O)C(C/C=C(\C)CC/C=C(\C)CC/C=C(\C)CC/C=C(\C)CC/C=C(\C)CC/C=C(\C)CC/C=C(\C)CC/C=C(\C)CC/C=C(\C)CCC=C(C)C)=C(C)C1=O` [Q, coenzyme Q10], the “dose previously demonstrated to be safe” value [1] is given as “up to 300 mg daily”, the “plasma levels of CoQ10 after treatment, CoQ10 alone versus combination groups” value [2] is given as “did not differ” and the “mean change on treatment (Week 12-Week 0) in acetylcholine AUC percent increase in forearm blood flow ratio, factorial margin (F+ or Q+)” value [3, 7] is given as 206% [119% to. For the same compound, the “mean change on treatment (Week 12-Week 0) in acetylcholine AUC percent increase in forearm blood flow ratio” value [3] was −7% [−119%, the “mean change on treatment (Week 12-Week 0) in acetylcholine AUC percent increase in forearm blood flow ratio” value ([3]; listed as CoQ10) was “no change” and the lipid lowering effects [4] was “no lipid lowering effects”. For the same compound, the “mean change on treatment (Week 12-Week 0) in acetylcholine percent increase in forearm blood flow ratio with co-infusion of L-NMMA, factorial margin (F+ or Q+)” value [5, 7] was 48% [6% to 90%], the “mean change on treatment (Week 12-Week 0) in acetylcholine percent increase in forearm blood flow ratio with co-infusion of L-NMMA” value ([5]; single treatment group, 200 mg once daily each agent) was −21% [−76% to and the “mean change on treatment (Week 12-week 0) in sodium nitroprusside AUC percent increase in forearm blood flow ratio, factorial margin (F+ or Q+)” value [6, 7] was 822% [399% to. The “mean change on treatment (Week 12-week 0) in sodium nitroprusside AUC percent increase in forearm blood flow ratio” value ([6]; single treatment group, 200 mg once daily each agent, SNP 1.5, 3 and 10 μg/min) was 50% [−641% to.
